According to ChEMBL document CHEMBL3045107, “A facile green synthesis and in vitro antimicrobial activity 4H-pyrimido[2,1-b][1,3]benzothiazole derivatives using aluminum trichloride under solvent free conditions” (Med Chem Res, 2012):
Values after ≈ are worked out from the molar mass of the structure shown. Active and inactive are the calls of the source. No cut-off for these calls is given here.

Columns and labels:
[1] = test system: Providencia rettgeri; experiment: Antibacterial activity against Providencia rettgeri isolated from infected fish after 24 hr by broth microdilution method; assay type: functional
[2] = test system: Salmonella typhi; experiment: Antibacterial activity against Salmonella enterica subsp. enterica serovar Typhi ATCC 23564 after 24 hr by broth microdilution method; assay type: functional; conditions: ATCC 23564, 24 h
[3] = test system: Escherichia coli; experiment: Antibacterial activity against Escherichia coli ATCC 35218 after 24 hr by broth microdilution method; assay type: functional; conditions: ATCC 35218, 24 h
[4] = test system: Staphylococcus aureus; experiment: Antibacterial activity against Staphylococcus aureus ATCC 11632 after 24 hr by broth microdilution method; assay type: functional; conditions: ATCC 11632, 24 h
[5] = test system: Pseudomonas aeruginosa; experiment: Antibacterial activity against Pseudomonas aeruginosa ATCC 15499 after 24 hr by broth microdilution method; assay type: functional; conditions: ATCC 15499, 24 h
[6] = test system: Bacillus cereus; experiment: Antibacterial activity against Bacillus cereus MTCC 7350 after 24 hr by broth microdilution method; assay type: functional; conditions: MTCC 7350, 24 h
[7] = test system: Aspergillus flavus; experiment: Antifungal activity against Aspergillus flavus at 0.78 to 50 ug/ml after 72 hr by broth microdilution method; assay type: functional
[8] = test system: Aspergillus fumigatus; experiment: Antifungal activity against Aspergillus fumigatus after 72 hr by broth microdilution method; assay type: functional
[9] = test system: Aspergillus fumigatus; experiment: Antifungal activity against Aspergillus fumigatus at 0.78 to 50 ug/ml after 72 hr by broth microdilution method; assay type: functional
[10] = test system: Aspergillus niger; experiment: Antifungal activity against Aspergillus niger after 72 hr by broth microdilution method; assay type: functional
[11] = Cytotoxicity against Homo sapiens (human) L123 cells after 48 hr by MTT assay; assay type: cell-based; parameters: unit not given here
[12] = test system: Aspergillus niger; experiment: Antifungal activity against Aspergillus niger at 0.78 to 50 ug/ml after 72 hr by broth microdilution method; assay type: functional
[13] = test system: Staphylococcus aureus; experiment: Antibacterial activity against Staphylococcus aureus ATCC 11632 at 0.78 to 50 ug/ml after 24 hr by broth microdilution method; assay type: functional, organism-based
[14] = test system: Escherichia coli; experiment: Antibacterial activity against Escherichia coli ATCC 35218 at 0.78 to 50 ug/ml after 24 hr by broth microdilution method; assay type: functional, organism-based
[15] = test system: Providencia rettgeri; experiment: Antibacterial activity against Providencia rettgeri isolated from infected fish at 0.78 to 50 ug/ml after 24 hr by broth microdilution method; assay type: functional, organism-based
[16] = test system: Pseudomonas aeruginosa; experiment: Antibacterial activity against Pseudomonas aeruginosa ATCC 15499 at 0.78 to 50 ug/ml after 24 hr by broth microdilution method; assay type: functional, organism-based
[17] = test system: Salmonella typhi; experiment: Antibacterial activity against Salmonella enterica subsp. enterica serovar Typhi ATCC 23564 at 0.78 to 50 ug/ml after 24 hr by broth microdilution method; assay type: functional, organism-based
[18] = test system: Aspergillus flavus; experiment: Antifungal activity against Aspergillus flavus after 72 hr by broth microdilution method; assay type: functional

Row | SMILES | MIC [1] | MIC [2] | MIC [3] | MIC [4] | MIC [5] | MIC [6] | inhibition zone (IZ) [7] | MIC [8] | inhibition zone (IZ) [9] | MIC [10] | IC50 [11] | inhibition zone (IZ) [12] | Activity [13] | Activity [7] | Activity [9] | Activity [12] | MIC [18] | further results
1 | O=C(O)c1cn(C2CC2)c2cc(N3CCNCC3)c(F)cc2c1=O [CIPROFLOXACIN] | 1.62 µg/mL (≈ 4.89 µM) | 3.25 µg/mL (≈ 9.81 µM) | 1.62 µg/mL (≈ 4.89 µM) | 3.25 µg/mL (≈ 9.81 µM) | 1.62 µg/mL (≈ 4.89 µM) | 1.62 µg/mL (≈ 4.89 µM) |  |  |  |  |  |  |  |  |  |  |  | 
2 | CCOC(=O)C1=C(C)N=C2Sc3ccccc3N2C1c1ccc(OC)cc1 (configuration not stated) | 6.25 µg/mL (≈ 16.4 µM) | 12.5 µg/mL (≈ 32.9 µM) | 6.25 µg/mL (≈ 16.4 µM) | 6.25 µg/mL (≈ 16.4 µM) | 6.25 µg/mL (≈ 16.4 µM) | 6.25 µg/mL (≈ 16.4 µM) | 18 mm | 6.25 µg/mL (≈ 16.4 µM) | 20 mm | 6.25 µg/mL (≈ 16.4 µM) | > 100 | 16 mm |  |  |  |  |  | 
3 | CCOC(=O)C1=C(C)N=C2Sc3ccccc3N2C1c1ccc(N(C)C)cc1 (configuration not stated) | 12.5 µg/mL (≈ 31.8 µM) | 12.5 µg/mL (≈ 31.8 µM) | 12.5 µg/mL (≈ 31.8 µM) |  | 12.5 µg/mL (≈ 31.8 µM) | 6.25 µg/mL (≈ 15.9 µM) |  |  |  |  | > 100 |  | inactive | inactive | inactive | inactive |  | 
4 | CCOC(=O)C1=C(C)N=C2Sc3ccccc3N2C1c1ccccc1 (configuration not stated) |  | 25 µg/mL (≈ 71.3 µM) |  |  | 25 µg/mL (≈ 71.3 µM) | 12.5 µg/mL (≈ 35.7 µM) |  | 6.25 µg/mL (≈ 17.8 µM) | 10 mm |  | > 100 |  | inactive | inactive |  | inactive |  | Activity [14]: inactive; Activity [15]: inactive
5 | CCOC(=O)C1=C(C)N=C2Sc3ccccc3N2C1c1ccc(O)c(OC)c1 (configuration not stated) | 25 µg/mL (≈ 63.1 µM) |  | 25 µg/mL (≈ 63.1 µM) | 25 µg/mL (≈ 63.1 µM) |  | 12.5 µg/mL (≈ 31.5 µM) |  |  |  | 6.25 µg/mL (≈ 15.8 µM) | 50 | 10 mm |  | inactive | inactive |  |  | Activity [16]: inactive; Activity [17]: inactive
6 | CCOC(=O)C1=C(C)N=C2Sc3ccccc3N2C1c1c(Cl)cccc1Cl (configuration not stated) | 12.5 µg/mL (≈ 29.8 µM) | 25 µg/mL (≈ 59.6 µM) | 6.25 µg/mL (≈ 14.9 µM) | 12.5 µg/mL (≈ 29.8 µM) | 12.5 µg/mL (≈ 29.8 µM) | 6.25 µg/mL (≈ 14.9 µM) |  | 6.25 µg/mL (≈ 14.9 µM) |  |  | > 100 |  |  | inactive | inactive | inactive | 12.5 µg/mL (≈ 29.8 µM) | 
7 | CCOC(=O)C1=C(C)N=C2Sc3ccccc3N2C1c1ccc(O)cc1 (configuration not stated) | 12.5 µg/mL (≈ 34.1 µM) | 25 µg/mL (≈ 68.2 µM) | 6.25 µg/mL (≈ 17.1 µM) | 12.5 µg/mL (≈ 34.1 µM) | 12.5 µg/mL (≈ 34.1 µM) | 6.25 µg/mL (≈ 17.1 µM) |  |  | 12 mm | 6.25 µg/mL (≈ 17.1 µM) | 50 | 15 mm |  | inactive |  |  |  | 
8 | CCOC(=O)C1=C(C)N=C2Sc3ccccc3N2C1c1ccc([N+](=O)[O-])cc1 (configuration not stated) | 25 µg/mL (≈ 63.2 µM) | 6.25 µg/mL (≈ 15.8 µM) | 12.5 µg/mL (≈ 31.6 µM) | 25 µg/mL (≈ 63.2 µM) | 12.5 µg/mL (≈ 31.6 µM) | 6.25 µg/mL (≈ 15.8 µM) |  | 6.25 µg/mL (≈ 15.8 µM) | 15 mm | 12.5 µg/mL (≈ 31.6 µM) | > 100 | 17 mm |  | inactive |  |  |  | 
9 | OC(Cn1cncn1)(Cn1cncn1)c1ccc(F)cc1F [FLUCONAZOLE] |  |  |  |  |  |  | 25 mm | 1.62 µg/mL (≈ 5.29 µM) | 22 mm | 1.62 µg/mL (≈ 5.29 µM) |  | 18 mm |  |  |  |  | 1.62 µg/mL (≈ 5.29 µM) | 
10 | CCOC(=O)C1=C(C)N=C2Sc3ccccc3N2C1c1ccccc1O (configuration not stated) | 12.5 µg/mL (≈ 34.1 µM) |  | 12.5 µg/mL (≈ 34.1 µM) |  | 25 µg/mL (≈ 68.2 µM) | 6.25 µg/mL (≈ 17.1 µM) | 11 mm |  |  |  | > 100 |  | inactive |  | inactive | inactive | 12.5 µg/mL (≈ 34.1 µM) | Activity [17]: inactive
